Reference: ChEMBL document CHEMBL3616463, “Differential influence of 7 cations on 16 non-competitive NMDA receptor blockers” (Bioorg Med Chem Lett, 2015)

The compounds below were run against Glutamate NMDA receptor.
Type: cell membranes, Rattus norvegicus, Wistar, Brain, Membrane
Description: Displacement of [3H]MK-801 from NMDA receptor in Wistar rat brain membranes by scintillation counting analysis

With NCCCCCCCCc1ccc(CCCCN)s1 as the compound, how does the IC50 read?
Its IC50 is 0.43 µM.

NCCCN1c2ccccc2Sc2ccc(Cl)cc21 [NOR2-CHLORPROMAZINE] was tested. Which IC50 did it give?
Its IC50 is 5.79 µM.

How did the IC50 turn out when NC(N)=NCCCCN=C(N)N [ARCAINE] was run?
The IC50 was 6.39 µM.

For CN(C)CCCN1c2ccccc2Sc2ccc(Cl)cc21 [CHLORPROMAZINE], which IC50 is on record?
The IC50 was 21 µM.

Which IC50 does the source give for C[C@@H](CN)C(c1cccc(F)c1)c1cccc(F)c1 here?
The IC50 was 0.11 µM.

For C[C@](N)(Cc1ccccc1)c1ccccc1, which IC50 is on record?
Its IC50 is 0.78 µM.

For N=C(N)c1ccc(N2CCCN(c3ccc(C(=N)N)cc3)CC2)cc1, which IC50 is on record?
The IC50 was 0.35 µM.

NCCCC12CCC(c3ccccc31)c1ccccc12 was tested. Which IC50 did it give?
Its IC50 is 7.44 µM.

For CN[C@@]1(c2ccccc2Cl)CCCCC1=O, which IC50 is on record?
The IC50 was 2.12 µM.

How did the IC50 turn out when COC(=O)[C@@H](N)Cc1c[nH]c2ccccc12 [TRYPTOPHAN METHYL ESTER] was run?
The IC50 was 169 µM.

For c1ccc(C2(N3CCCCC3)CCCCC2)cc1 [PHENCYCLIDINE], which IC50 is on record?
Its IC50 is 0.11 µM.

Which IC50 does the source give for CN[C@]1(c2ccccc2Cl)CCCCC1=O [ESKETAMINE] here?
Its IC50 is 0.64 µM.

With NCCOC(c1ccccc1)c1ccccc1 as the compound, how does the IC50 read?
Its IC50 is 5.48 µM.

How did the IC50 turn out when NCCCCCCCCCCCCN was run?
Its IC50 is 8.39 µM.
